Reference: EP4644391A1, “NOVEL PHENYLQUINOLONE COMPOUND HAVING ANTIBACTERIAL AND ANTICANCER FUNCTIONS, AND PREPARATION THEREOF” (Alphamol Science Ltd (Shanghai), priority 2022, dated 2024)
Values after ≈ are worked out from the molar mass of the structure shown.

Assays:
Format in all cases: cell-based
[1] = system: Staphylococcus aureus ATCC43300; assay: Resistance test of bacteria against compounds (serial passage, 21 days); conditions: for MIC: Staphylococcus aureus, ATCC43300, 504 h, read-out: MIC at the end of the experiment
Method: This example provides a resistance test of bacteria against compounds, and the specific experimental method is as follows. • 1. […] It was ensured that among the 6 final concentrations of the drug diluted into the wells, some were higher than the original MIC of the bacteria and some were lower than the original MIC of the bacteria. • 2. Preparation of bacterial liquid: 10 mL of culture medium was taken and added to a sterilized plate using a pipette, then 100 µL of the above-mentioned passaged bacterial liquid was added, and mixed well for later use. • 3. The above-mentioned diluted bacterial liquid was taken and added to a 96-well plate using a pipette, 180 µL per well, 3 wells per group, 6 groups in total. 20 µL of drug solution was added to each well (note: it is necessary to replace the pipette tip each time the drug is added), so that the final drug concentrations were 2 µg/mL, 1 µg/mL, 0.8 µg/mL, 0.4 µg/mL, 0.2 µg/mL, 0.1 µg/mL, respectively. The well with 200 µL of diluted bacterial liquid was used as the positive control well, and the well with 200 µL of culture medium was used as the negative control well.
The test object was Staphylococcus aureus (S. aureus). The specific results are shown in FIG1.

[2] = system: human acute T-lymphoblastic leukemia cell Jurkat; assay: In vitro anticancer activity test (MTT cell proliferation assay)
Method: (§1) The anticancer activity of the compounds was tested using an in vitro cancer cell tests. The specific test method is as follows: • 1. Cell recovery and culture method: the cryovial was taken out from the liquid nitrogen container firstly, soaked directly in 37°C warm water, and shaked from time to time to let it thaw as soon as possible. Then, the cryovial was transferred to a clean bench, and the lid was open. […] Then, the supernatant was discarded, complete culture medium containing 10% fetal bovine serum was added to resuspend the cells, the cells was counted, the cell density was adjusted, and then inoculated into a culture bottle. The culture bottle was placed in a cell culture incubator at 5% CO2 and 37°C. The complete culture medium was replaced once the next day and the culture was continued. • 2. Cell passaging method: adherent cells in the logarithmic growth phase were placed in a clean bench, the original culture medium was discarded, and washed three times with 1×PBS. An appropriate amount of 0.25% trypsin digestion solution was added to moisten the cells, and then the trypsin solution was aspirated. […] When 90% of the cells become round, the cells were moved immediately to the clean bench and complete culture medium was added to terminate digestion. Then, the cells were dislodged by pipetting up and down with a rubber-tipped dropper to single cells. The cells were counted, and the cell density was adjusted. The cells were inoculated into a suitable culture bottle or dish, added enough complete culture medium, and placed in a cell culture incubator at 5% CO2 and 37°C for static culture. For suspension cells in the logarithmic phase, the original culture medium was directly centrifuged at 50g for 5 minutes, the supernatant was discarded, and the cells were washed once with PBS and centrifuged. After discarding the supernatant, the complete culture medium was added and the cells were dispersed using a rubber-tipped dropper. The cells are counted, and the cell density was adjusted. The cells were inoculated into appropriate culture bottles or culture dishes, and sufficient complete culture medium was added, and the cells were cultured in a cell culture incubator at 5% CO2 and 37°C. • 3.

[3] = system: human breast cancer cell MCF-7; assay: as above; conditions: MCF7
Method: as §1, with “The cells were inoculated into appropriate culture bottles or culture dishes, and sufficient complete culture medium was added, and the cells were cultured in a cell culture incubator at 5% CO2 and 37°C. • 3.” left out

[4] = system: human breast ductal carcinoma cell T-47D; assay: as above; conditions: T47D
Method: as §1

[5] = system: human ovarian adenocarcinoma cellSK-OV-3; assay: as above; conditions: SK-OV-3
Method: as §1

| SMILES | resistance of bacteria in the subsequent culture ([1]; Staphylococcus aureus ATCC43300, serial passage) | MIC [1] | IC50 [2] | IC50 [3] | initial MIC compared with ciprofloxacin and vancomycin ([1]; Staphylococcus aureus ATCC43300, start of resistance test) | IC50 [4] | IC50 [5] |
| --- | --- | --- | --- | --- | --- | --- | --- |
| O=C(O)c1cn(C2CC2)c2cc(N3CCNCC3)c(F)cc2c1=O [Ciprofloxacin] | increased rapidly | 128 µg/mL (≈ 386 µM) | > 100 µM | > 100 µM |  |  |  |
| O=C(O)c1cn(C2CC2)c2c(Cl)c(-c3ccc(S(=O)(=O)NCCCC(F)(F)F)nc3)c(F)cc2c1=O [Example 29, 8-chloro-1-cyclopropyl-6-fluoro-4-oxo-7-(6-(N-(4,4,4-trifluorobutyl)sulfamoyl)pyridin-3-yl)-1,4-dihydroquinolin-3-carboxylic acid] |  | 2 µg/mL (≈ 3.65 µM) | 1 to 10 µM | 1 to 10 µM | superior | 1 to 10 µM | 1 to 10 µM |
| CCN(CC)CCNC(=O)c1c(C)[nH]c(/C=C2\C(=O)Nc3ccc(F)cc32)c1C [Sunitinib] |  |  |  | 3.2 ± 0.3 µM |  | 6.4 ± 1.7 µM | 12.2 ± 5.8 µM |
